{
  "source": "paper PMC9105233",
  "about": "“The Nitrogen Atom of Vitamin B6 Is Essential for the Catalysis of Radical Aminomutases” (International Journal of Molecular Sciences, 2022)",
  "target": "T1, lysine 5,6-aminomutase (5,6-LAM) (Acetoanaerobium sticklandii, UniProt E3PRJ4+E3PRJ5)",
  "T1 construct": "gene kamD",
  "T1 sequence (E3PRJ5 whole entry)": "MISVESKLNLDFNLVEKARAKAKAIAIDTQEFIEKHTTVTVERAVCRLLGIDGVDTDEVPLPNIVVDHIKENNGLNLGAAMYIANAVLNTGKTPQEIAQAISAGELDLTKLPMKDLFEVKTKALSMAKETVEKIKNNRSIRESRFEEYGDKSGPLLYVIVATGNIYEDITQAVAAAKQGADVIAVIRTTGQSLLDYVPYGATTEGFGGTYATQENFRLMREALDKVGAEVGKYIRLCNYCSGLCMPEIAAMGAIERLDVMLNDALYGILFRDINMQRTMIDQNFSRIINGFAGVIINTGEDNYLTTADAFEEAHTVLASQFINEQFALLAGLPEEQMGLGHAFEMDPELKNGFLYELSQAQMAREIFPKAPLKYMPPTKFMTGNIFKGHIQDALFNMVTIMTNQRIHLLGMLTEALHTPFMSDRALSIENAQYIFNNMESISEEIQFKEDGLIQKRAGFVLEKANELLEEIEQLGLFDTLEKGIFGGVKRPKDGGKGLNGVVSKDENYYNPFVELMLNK",
  "T1 sequence (E3PRJ4 whole entry)": "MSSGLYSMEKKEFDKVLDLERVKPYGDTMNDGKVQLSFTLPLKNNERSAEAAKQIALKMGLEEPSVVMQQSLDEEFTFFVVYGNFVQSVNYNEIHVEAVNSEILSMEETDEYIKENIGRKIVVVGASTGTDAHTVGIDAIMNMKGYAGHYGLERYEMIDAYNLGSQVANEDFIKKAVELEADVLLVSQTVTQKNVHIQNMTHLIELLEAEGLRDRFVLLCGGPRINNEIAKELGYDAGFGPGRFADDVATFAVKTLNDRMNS",
  "details": "dAdoCbl, NH4-EPPS pH 8.5, reaction 4 min, PLP analogue replacing PLP",
  "data": [
    {"molecule": "Cc1ccc(COP(=O)(O)O)c(C=O)c1O", "note": "[dAPLP]", "values": [
      {"measurement": "EPR of substrate-related radical with 4-thia-L-lysine", "result": "this spectrum obtained with dAPLP can be attributed to the corresponding S^•"}
    ]}
  ]
}
